One experiment relates to RAW264.7 cells. The experiment can be described thus: High-throughput screen of cytokine production by LPS-stimulated RAW264.7 macrophages. It is filed as cell-based.
For a further experiment, the system named is RAW 264.7 macrophage. The conditions noted are these: cited from earlier work.
The target in the next experiment is T1, Mer (Homo sapiens, UniProt Q12866).
T1 sequence (Q12866 21-999): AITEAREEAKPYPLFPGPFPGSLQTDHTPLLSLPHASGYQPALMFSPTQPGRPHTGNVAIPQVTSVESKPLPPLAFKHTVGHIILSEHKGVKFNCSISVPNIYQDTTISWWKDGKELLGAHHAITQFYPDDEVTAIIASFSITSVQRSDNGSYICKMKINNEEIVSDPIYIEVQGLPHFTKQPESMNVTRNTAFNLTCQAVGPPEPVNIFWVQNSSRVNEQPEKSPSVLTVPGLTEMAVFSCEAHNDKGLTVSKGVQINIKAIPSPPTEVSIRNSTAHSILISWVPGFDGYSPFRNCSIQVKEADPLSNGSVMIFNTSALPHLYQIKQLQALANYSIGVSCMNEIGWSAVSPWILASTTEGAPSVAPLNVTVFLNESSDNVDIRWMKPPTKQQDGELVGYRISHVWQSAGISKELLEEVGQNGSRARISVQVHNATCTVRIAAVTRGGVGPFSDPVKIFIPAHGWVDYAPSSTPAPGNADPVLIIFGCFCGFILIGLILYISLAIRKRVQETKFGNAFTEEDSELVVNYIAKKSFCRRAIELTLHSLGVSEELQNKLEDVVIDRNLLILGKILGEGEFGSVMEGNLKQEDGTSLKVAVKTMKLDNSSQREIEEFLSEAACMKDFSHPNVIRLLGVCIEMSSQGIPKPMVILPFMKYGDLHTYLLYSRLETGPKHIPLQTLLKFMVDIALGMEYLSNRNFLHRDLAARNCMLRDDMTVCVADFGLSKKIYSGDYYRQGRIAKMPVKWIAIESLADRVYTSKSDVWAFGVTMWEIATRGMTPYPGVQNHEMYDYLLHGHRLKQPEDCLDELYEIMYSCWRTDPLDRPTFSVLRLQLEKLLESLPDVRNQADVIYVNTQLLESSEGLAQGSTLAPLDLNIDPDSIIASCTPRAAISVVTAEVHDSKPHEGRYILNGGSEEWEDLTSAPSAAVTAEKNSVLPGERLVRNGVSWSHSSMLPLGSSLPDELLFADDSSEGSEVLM
The following applies: exogenous ligand; cited from earlier work.

The test system of the next experiment is allograft. The following applies: in vivo; cited from earlier work.
In the next experiment the target is T2, CD209 (Homo sapiens, UniProt Q9NNX6).
T2 sequence (Q9NNX6 1-404): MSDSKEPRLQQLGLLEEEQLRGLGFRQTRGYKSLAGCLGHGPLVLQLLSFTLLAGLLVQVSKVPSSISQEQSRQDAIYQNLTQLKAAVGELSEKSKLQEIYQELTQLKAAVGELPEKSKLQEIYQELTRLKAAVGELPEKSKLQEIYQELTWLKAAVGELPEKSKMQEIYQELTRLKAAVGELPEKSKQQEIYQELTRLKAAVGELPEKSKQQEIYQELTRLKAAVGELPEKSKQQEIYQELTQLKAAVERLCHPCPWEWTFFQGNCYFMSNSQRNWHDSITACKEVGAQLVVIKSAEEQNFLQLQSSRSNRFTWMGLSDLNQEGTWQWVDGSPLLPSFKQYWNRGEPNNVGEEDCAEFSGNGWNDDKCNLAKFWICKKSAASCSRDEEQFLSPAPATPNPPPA
The conditions noted are these: cited from earlier work.

The mark [1] stands for this setting: macrophages stimulated with LPS.

Results on nine compounds are retold here after US20230058412A1, “Carbohydrate-Modified Particles and Particulate Formulations for Modulating an Immune Response” (NORTHWESTERN UNIVERSITY, priority 2015, published 2023).

Description for RAW264.7 cells: Since macrophages are one immune cell thought to be important in immune responses, including tolerance through their production of a key immune mediator called Interleukin-10 (IL-10), we developed an in vitro approach to screening the effects of EDC-cells versus PLGA nanoparticles for their effects on IL-10 production.
We examined the proinflammatory response (IL-6) or anti-inflammatory response (IL-10), as outlined in FIG. 2.
Using the strategy in FIG. 2, we calculated the greatest fold change for cytokine production over a therapeutically relevant dose curve of 0.1, 1, 10, and 100 μM.
Using activated RAW macrophages we developed a high throughput screening method to identify tolerogenic signals.
In support of our overarching concept that ECDI-fixed NPs are lacking signals for induction of tolerogenic signals, we have examined the ability to modulate cytokine responses in a macrophage cell line (RAW264.7).

In the case of `CC(=O)N[C@H]1C(O)O[C@H](CO)[C@@H](O[C@@H]2O[C@H](CO)[C@H](O)[C@H](O)[C@H]2O)[C@@H]1O[C@@H]1O[C@@H](C)[C@@H](O)[C@@H](O)[C@@H]1O` (some centres unmarked) [Lewis^x antigen], in the experiment on RAW264.7 cells (setting [1]), the IL-6 production entry was “suppression of IL-6 production” and the IL-10 production entry is listed as “enhancement of IL-10”. As for `C[C@H]1O[C@@H](O[C@H]2CC[C@@]3(C)[C@@H](CC[C@]4(C)[C@@H]3C=C[C@]35OC[C@@]6(CCC(C)(C)C[C@H]63)[C@@H](O)C[C@]54C)[C@]2(C)CO)[C@H](O)[C@@H](O[C@@H]2O[C@H](CO)[C@@H](O)[C@H](O)[C@H]2O)[C@H]1O` [saikosaponin A], the “inflammatory response (decrease of pro-inflammatory cytokines, increase in IL-10/TGF13)” value in the experiment with RAW 264.7 macrophage is recorded as “inhibit this inflammatory response”. For the compound `C[C@H]1CC[C@@H]2N(C1)C[C@H]1[C@@H]3C[C@H]4[C@@H](C[C@H](O)[C@H]5C[C@@H](O)CC[C@@]54C)[C@@H]3CC[C@@H]1[C@]2(C)O` [peimine], the “inflammatory response (decrease of pro-inflammatory cytokines, increase in IL-10/TGF13)” value with RAW 264.7 macrophage is listed as “inhibit this inflammatory response”. Regarding “GAS6: Growth Arrest-Specific 6, cognate ligand for TAM RTKs”, the “tyrosine autophosphorylation / signalling of Mer” value in the experiment with Mer was “stimulate tyrosine autophosphorylation of both Mer and Ax1”. For the compound Protein S: cognate ligand for TAM RTKs, the “tyrosine autophosphorylation / signalling of Mer” value with Mer is “only capable of signaling through Mer”. For `C[C@H](O)[C@@H](O)[C@@H](O)[C@H](O)C=O` [Fucose, L-Fucose], in the experiment with RAW264.7 cells (macrophages activated with LPS, with or without ECDI-SP, dose curve 0.1, 1, 10, 100 μM), the “tolerogenic signal (increase IL-10 secretion and/or decrease IL-6 secretion versus baseline)” value is listed as “exhibiting a tolerogenic signal”.

Take `CCCCCC(=O)CC(=O)/C=C/c1ccc(O)c(OC)c1` [6-dehydrogingerdione]: in the experiment with RAW 264.7 macrophage, the “inflammatory response (decrease of pro-inflammatory cytokines, increase in IL-10/TGF13)” value was “inhibit this inflammatory response”. For `CC(=O)N[C@H]1[C@H](O[C@H]2[C@@H](O)[C@@H](CO)O[C@@H](O[C@H]3[C@H](O)[C@@H](O)C(O)O[C@@H]3CO)[C@@H]2O)O[C@H](CO)[C@@H](O[C@@H]2O[C@H](CO)[C@H](O)[C@H](O)[C@H]2O)[C@@H]1O[C@@H]1O[C@@H](C)[C@@H](O)[C@@H](O)[C@@H]1O` (some centres unmarked) [LNFPIII, Lacto-N-fuconentaose III], in the experiment on allograft, the allograft survival result is “prolong allograft survival”. For the same compound, the “binding and signalling through CD209” value at CD209 was “binds and signals through CD209”. For the compound `Nc1ncnc2c1ncn2[C@@H]1O[C@H](CO)[C@@H](O)[C@H]1O` [adenosine], in the experiment with RAW 264.7 macrophage, the “inflammatory response (decrease of pro-inflammatory cytokines, increase in IL-10/TGF13)” value is “inhibit this inflammatory response”.
